Values of other authors in paper PMC8583936, “Machine Learning Assisted Approach for Finding Novel High Activity Agonists of Human Ectopic Olfactory Receptors” (International Journal of Molecular Sciences, 2021).
Where a name gives a salt, the structure may show the parent alone.

Biological target: T1, OR1A1 (Homo sapiens, UniProt Q9P1Q5)
T1 sequence (Q9P1Q5 1-309): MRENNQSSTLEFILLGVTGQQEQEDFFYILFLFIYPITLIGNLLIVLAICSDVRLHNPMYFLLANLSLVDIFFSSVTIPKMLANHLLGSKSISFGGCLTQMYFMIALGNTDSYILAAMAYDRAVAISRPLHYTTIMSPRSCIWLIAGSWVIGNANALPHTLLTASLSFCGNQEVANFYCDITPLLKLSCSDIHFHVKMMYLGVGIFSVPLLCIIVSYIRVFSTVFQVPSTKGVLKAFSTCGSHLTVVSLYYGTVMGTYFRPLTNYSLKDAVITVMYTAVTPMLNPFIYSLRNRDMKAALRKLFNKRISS
Settings: Table S1; ref Supplement references [1]-[9] as printed after each odorant name; cited from earlier work

Row | SMILES | Class (agonist / non-agonist / conflicting info.) for OR1A1
1 | COc1cc(C)ccc1O [2-methoxy-4-methylphenol] | Non-agonist
2 | CCC(C)C=O (stereo not shown) [2-methylbutyraldehyde] | Non-agonist
3 | CCCCCCCC(C)=O [2-nonanone] | Conflicting info.
4 | CCCCCC/C=C\C=O [2-nonenal, (2z)-] | Non-agonist
5 | CCCCCCC(C)=O [2-octanone] | Agonist
6 | CCCCC/C=C\C=O [2-octenal, (2z)-] | Non-agonist
7 | CCCC(C)=O [2-pentanone] | Non-agonist
8 | CCCCCc1ccccn1 [2-pentylpyridine] | Agonist
9 | SCCc1ccccc1 [2-phenylethanethiol] | Agonist
10 | OCCc1ccccc1 [2-phenylethanol] | Non-agonist
11 | CCC(=O)C1=NCCC1 [2-propionylpyrroline] | Non-agonist
12 | CCCCCCCCC=CC=O [2-undecenal] | Non-agonist
13 | CC/C=C\CCOC(C)=O [3-Hexenyl acetate, (3Z)-] | Non-agonist
14 | CCC(S)C(C)=O (stereo not shown) [3-Mercapto-2-pentanone] | Non-agonist
15 | CC(C)(S)CCOC=O [3-Mercapto-3-methylbutyl formate] | Non-agonist
16 | CCCC(S)CCOC(C)=O (stereo not shown) [3-Mercaptohexyl acetate] | Agonist
17 | CC(C)CCO [3-Methyl-1-butanol] | Non-agonist
18 | Cc1c[nH]c2ccccc12 [3-Methyl-1H-indole] | Non-agonist
19 | CCCCCC(=O)C(C)C(C)=O (stereo not shown) [3-Methyl-2,4-nonanedione] | Agonist
20 | CCCC(=O)C(C)CC (stereo not shown) [3-Methylheptan-4-one] | Non-agonist
21 | CCCC(S)CCO (stereo not shown) [3-Sulfanylhexan-1-ol] | Non-agonist
22 | CCc1cccc(O)c1 [3-ethylphenol] | Non-agonist
23 | CCCCC(=O)CC [3-heptanone] | Agonist

Row | SMILES | Class (agonist / non-agonist / conflicting info.) for OR1A1
24 | CC/C=C\CC=O [3-hexenal, (3z)-] | Non-agonist
25 | CCCCCC(=O)CC [3-octanone] | Agonist
26 | CCC(C)c1nccnc1OC (stereo not shown) [3-secbutyl-2-methoxypyrazine] | Non-agonist
27 | CCCCC(CC)CCC(=O)O (stereo not shown) [4-Ethyloctanoic acid] | Non-agonist
28 | CC(=O)CC(C)(C)S [4-Mercapto-4-methyl-2-pentanone] | Non-agonist
29 | COC1=C(C)OC(C)C1=O (stereo not shown) [4-Methoxy-2,5-dimethyl-3(2H)-furanone] | Non-agonist
30 | COCCC(C)(C)S [4-Methoxy-2-methyl-2-butanethiol] | Non-agonist
31 | CC(=O)c1ccc(C)cc1 [4-Methyl acetophenone] | Non-agonist
32 | CCCCC(C)CCC(=O)O (stereo not shown) [4-Methyloctanoic acid] | Non-agonist
33 | O=C1CCOc2ccccc21 [4-chromanone] | Agonist
34 | C=Cc1ccc(O)cc1 [4-ethenylphenol] | Non-agonist
35 | CCc1ccc(O)cc1 [4-ethylphenol] | Non-agonist
36 | CC/C=C\CCC=O [4-heptenal, (4z)-] | Non-agonist
37 | Cc1ccc(O)cc1 [4-methylphenol] | Non-agonist
38 | CCCCC1OC(=O)CC1C (stereo not shown) [5-Butyl-4-methyloxolan-2-one] | Non-agonist
39 | CCC1OC(=O)C(O)=C1C (stereo not shown) [5-Ethyl-3-hydroxy-4-methylfuran-2(5H)-one] | Non-agonist
40 | CCCCCCC1CCC(=O)O1 (stereo not shown) [5-Hexyloxolan-2-one] | Non-agonist
41 | CCCCCCCCC1CCC(=O)O1 (stereo not shown) [5-Octyloxolan-2-one] | Non-agonist
42 | CCCCCC1CCC(=O)O1 (stereo not shown) [5-Pentyloxolan-2-one] | Agonist
43 | CCCC1CCCC(=O)O1 (stereo not shown) [6-Propyloxan-2-one] | Non-agonist
44 | COc1ccc2ccc(=O)oc2c1 [7-methoxycoumarin] | Non-agonist
45 | CC(C)CCCCCCCCCCC=O [12-methyltridecanal] | Non-agonist

Same assay, conditions: cited from earlier work

Row | SMILES | Class (agonist / non-agonist / conflicting info.) for OR1A1
46 | CCCc1ccc(O)c(OC)c1 [2-methoxy-4-propylphenol] | Non-agonist
47 | CCC(C)CO (stereo not shown) [2-methyl-1-butanol] | Non-agonist
48 | Cc1ccccc1O [2-methylphenol] | Non-agonist
49 | CCC(=O)C(=O)CC [3,4-hexanedione] | Non-agonist
50 | O=C(O)CCc1ccccc1 [3-Phenyl propionic acid] | Non-agonist
51 | Cc1cccc(O)c1 [3-methylphenol] | Non-agonist
52 | CCC(=O)OCCCc1ccccc1 [3-phenyl propyl propionate] | Agonist
53 | O=c1cc(O)c2ccccc2o1 [4-hydroxycoumarin] | Non-agonist

Biological target: T2, OR2W1 (Homo sapiens, UniProt Q9Y3N9)
T2 sequence (Q9Y3N9 1-320): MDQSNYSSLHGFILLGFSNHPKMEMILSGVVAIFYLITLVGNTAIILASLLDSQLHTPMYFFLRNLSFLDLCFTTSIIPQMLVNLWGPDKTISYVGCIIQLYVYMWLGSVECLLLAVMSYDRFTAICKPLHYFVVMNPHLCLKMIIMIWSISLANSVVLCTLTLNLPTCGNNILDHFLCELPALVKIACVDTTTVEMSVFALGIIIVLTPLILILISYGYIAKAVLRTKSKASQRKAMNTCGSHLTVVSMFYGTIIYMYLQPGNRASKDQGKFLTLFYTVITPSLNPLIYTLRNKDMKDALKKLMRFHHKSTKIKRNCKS
Settings: Table S2; ref Supplement references [2]-[12] as printed after each odorant name; cited from earlier work

Row | SMILES | Class (agonist / non-agonist / antagonist / conflicting info.) for OR2W1
54 | COc1cc(C)ccc1O [2-methoxy-4-methylphenol] | Non-agonist
55 | CCC(C)C=O (stereo not shown) [2-methylbutyraldehyde] | Non-agonist
56 | CCCCCCCC(C)=O [2-nonanone] | Agonist
57 | CCCCCC/C=C\C=O [2-nonenal, (2z)-] | Non-agonist
58 | CCCCCCC(C)=O [2-octanone] | Agonist
59 | CCCCC/C=C\C=O [2-octenal, (2z)-] | Non-agonist
60 | CCCC(C)=O [2-pentanone] | Non-agonist
61 | CCCCCc1ccccn1 [2-pentylpyridine] | Agonist
62 | SCCc1ccccc1 [2-phenylethanethiol] | Agonist
63 | OCCc1ccccc1 [2-phenylethanol] | Non-agonist
64 | CCC(=O)C1=NCCC1 [2-propionylpyrroline] | Non-agonist
65 | CCCCCCCCC=CC=O [2-undecenal] | Non-agonist
66 | CC/C=C\CCOC(C)=O [3-Hexenyl acetate, (3Z)-] | Non-agonist
67 | CCC(S)C(C)=O (stereo not shown) [3-Mercapto-2-pentanone] | Non-agonist
68 | CC(C)(S)CCOC=O [3-Mercapto-3-methylbutyl formate] | Non-agonist
69 | CCCC(S)CCOC(C)=O (stereo not shown) [3-Mercaptohexyl acetate] | Agonist
70 | CC(C)CCO [3-Methyl-1-butanol] | Non-agonist
71 | Cc1c[nH]c2ccccc12 [3-Methyl-1H-indole] | Non-agonist
72 | CCCCCC(=O)C(C)C(C)=O (stereo not shown) [3-Methyl-2,4-nonanedione] | Non-agonist
73 | CCCC(=O)C(C)CC (stereo not shown) [3-Methylheptan-4-one] | Non-agonist
74 | CCCC(S)CCO (stereo not shown) [3-Sulfanylhexan-1-ol] | Non-agonist
75 | CCc1cccc(O)c1 [3-ethylphenol] | Non-agonist
76 | CCCCC(=O)CC [3-heptanone] | Agonist

Row | SMILES | Class (agonist / non-agonist / antagonist / conflicting info.) for OR2W1
77 | CC/C=C\CC=O [3-hexenal, (3z)-] | Non-agonist
78 | CCCCCC(=O)CC [3-octanone] | Agonist
79 | CCC(C)c1nccnc1OC (stereo not shown) [3-secbutyl-2-methoxypyrazine] | Non-agonist
80 | CCCCC(CC)CCC(=O)O (stereo not shown) [4-Ethyloctanoic acid] | Non-agonist
81 | CC(=O)CC(C)(C)S [4-Mercapto-4-methyl-2-pentanone] | Non-agonist
82 | COC1=C(C)OC(C)C1=O (stereo not shown) [4-Methoxy-2,5-dimethyl-3(2H)-furanone] | Non-agonist
83 | COCCC(C)(C)S [4-Methoxy-2-methyl-2-butanethiol] | Non-agonist
84 | CC(=O)c1ccc(C)cc1 [4-Methyl acetophenone] | Agonist
85 | CCCCC(C)CCC(=O)O (stereo not shown) [4-Methyloctanoic acid] | Non-agonist
86 | O=C1CCOc2ccccc21 [4-chromanone] | Agonist
87 | C=Cc1ccc(O)cc1 [4-ethenylphenol] | Non-agonist
88 | CCc1ccc(O)cc1 [4-ethylphenol] | Non-agonist
89 | CC/C=C\CCC=O [4-heptenal, (4z)-] | Non-agonist
90 | Cc1ccc(O)cc1 [4-methylphenol] | Non-agonist
91 | CCCCC1OC(=O)CC1C (stereo not shown) [5-Butyl-4-methyloxolan-2-one] | Non-agonist
92 | CCC1OC(=O)C(O)=C1C (stereo not shown) [5-Ethyl-3-hydroxy-4-methylfuran-2(5H)-one] | Non-agonist
93 | CCCCCCC1CCC(=O)O1 (stereo not shown) [5-Hexyloxolan-2-one] | Non-agonist
94 | CCCCCCCCC1CCC(=O)O1 (stereo not shown) [5-Octyloxolan-2-one] | Non-agonist
95 | CCCCCC1CCC(=O)O1 (stereo not shown) [5-Pentyloxolan-2-one] | Non-agonist
96 | CCCC1CCCC(=O)O1 (stereo not shown) [6-Propyloxan-2-one] | Non-agonist
97 | COc1ccc2ccc(=O)oc2c1 [7-methoxycoumarin] | Non-agonist
98 | CC(C)CCCCCCCCCCC=O [12-methyltridecanal] | Non-agonist

Same assay, conditions: cited from earlier work

Row | SMILES | Class (agonist / non-agonist / antagonist / conflicting info.) for OR2W1
99 | CCCc1ccc(O)c(OC)c1 [2-methoxy-4-propylphenol] | Non-agonist
100 | CCC(C)CO (stereo not shown) [2-methyl-1-butanol] | Non-agonist
101 | Cc1ccccc1O [2-methylphenol] | Non-agonist
102 | CCC(=O)C(=O)CC [3,4-hexanedione] | Agonist
103 | O=C(O)CCc1ccccc1 [3-Phenyl propionic acid] | Non-agonist
104 | Cc1cccc(O)c1 [3-methylphenol] | Non-agonist
105 | CCC(=O)OCCCc1ccccc1 [3-phenyl propyl propionate] | Agonist
106 | O=c1cc(O)c2ccccc2o1 [4-hydroxycoumarin] | Non-agonist
